Where “and” joins values, the source holds several entries; their conditions need not be identical. Equal values may be shown once. After the bases stand the sugars from the 5' end (letter, count) and the backbone: PS all phosphorothioate, else s phosphorothioate and o phosphodiester by linkage. Methylation of C is not given here. e = 2'-O-(2-methoxyethyl) (MOE); k = constrained ethyl (cEt); d = 2'-deoxy (DNA)
Target: APOL1
Conditions: ASO

Sequence: GGTTCAAAAGCAGCAT (sugars k4 d9 k3, PS)
- target mRNA inhibition (A431, 0.0625 µM): 78%
- target mRNA inhibition (A431, 0.25 µM): 91%
- target mRNA inhibition (A431, 1 µM): 95%

Sequence: TCTATTAGAGGGCTAG (sugars kkkddddkekekdddd, PS)
- target mRNA inhibition (A431, 2 µM): 23%

Sequence: CAGTTTTGTAAGTGCA (sugars kekddddeekkddddd, PS)
- target mRNA inhibition (A431, 0.0156 µM): 39%
- target mRNA inhibition (A431, 0.0625 µM): 73%
- target mRNA inhibition (A431, 0.25 µM): 92%
- target mRNA inhibition (A431, 1 µM): 96%
- target mRNA inhibition (A431, 2 µM): 96%

Sequence: AAGTATTGCCAGCTAA (sugars k3 d4 k3 e1 d5, PS)
- target mRNA inhibition (A431, 2 µM): 49%

Sequence: GCATTCAGAATTTCCA (sugars kkkddddkekeddddd, PS)
- target mRNA inhibition (A431, 2 µM): 84%

Sequence: ATTCTATTAGAGGGCT (sugars kekddddeekkddddd, PS)
- target mRNA inhibition (A431, 2 µM): 77%

Sequence: TGTGATGTGGGACTTG (sugars k4 d9 k3, PS)
- target mRNA inhibition (A431, 0.0625 µM): 32%
- target mRNA inhibition (A431, 0.25 µM): 70%
- target mRNA inhibition (A431, 1 µM): 84%

Sequence: GTTATATTTGATCCTC (sugars k3 d4 k3 e1 d5, PS)
- target mRNA inhibition (A431, 2 µM): 98%

Sequence: TCAGATGGGTACTTCT (sugars kkdddddkekeddddd, PS)
- target mRNA inhibition (A431, 2 µM): 89%

Sequence: GTATTTCTTGATGTGG (sugars kddddkekekeddddd, PS)
- target mRNA inhibition (A431, 2 µM): 87%

Sequence: TTATATTTGATCCTCA (sugars kdddddkekekddddd, PS)
- target mRNA inhibition (A431, 2 µM): 82%

Sequence: GGTAAGAGCGATGGGA (sugars k3 d10 k3, PS)
- target mRNA inhibition (A431, 0.0625 µM): 79%
- target mRNA inhibition (A431, 0.25 µM): 93%
- target mRNA inhibition (A431, 1 µM): 97%

Sequence: ATTCTATTAGAGGGCT (sugars k3 d5 k3 d5, PS)
- target mRNA inhibition (A431, 2 µM): 95%

Sequence: CACATCATTGGGTTAT (sugars kkkddddkekekdddd, PS)
- target mRNA inhibition (A431, 2 µM): 58%

Sequence: TAAGTATTGCCAGCTA (sugars k3 d4 k3 e1 d5, PS)
- target mRNA inhibition (A431, 2 µM): 65%

Sequence: AGTTTTGTAAGTGCAA (sugars kkkddddkekekdddd, PS)
- target mRNA inhibition (A431, 2 µM): 77%

Sequence: CAGTTTTGTAAGTGCA (sugars kkkddddkekeddddd, PS)
- target mRNA inhibition (A431, 2 µM): 92%

Sequence: GTTCAAAAGCAGCATT (sugars kkkddddkekeddddd, PS)
- target mRNA inhibition (A431, 2 µM): 85%

Sequence: ATTCTCATGGTACAGG (sugars k4 d9 k3, PS)
- target mRNA inhibition (A431, 0.0156 µM): 24%
- target mRNA inhibition (A431, 0.0625 µM): 49% and 50%
- target mRNA inhibition (A431, 0.25 µM): 83% and 84%
- target mRNA inhibition (A431, 1 µM): 94% and 93%

Sequence: ATGAACGCAATGCTGA (sugars k4 d9 k3, PS)
- target mRNA inhibition (A431, 0.0625 µM): 52%
- target mRNA inhibition (A431, 0.25 µM): 76%
- target mRNA inhibition (A431, 1 µM): 92%

Sequence: GCTAATTTTCTGACTG (sugars kkkddddkekekdddd, PS)
- target mRNA inhibition (A431, 2 µM): 88%

Sequence: TGGGAATTATGGAATT (sugars kkkddddkekekdddd, PS)
- target mRNA inhibition (A431, 2 µM): 56%

Sequence: CTATTAGAGGGCTAGT (sugars kkddddkekekkdddd, PS)
- target mRNA inhibition (A431, 2 µM): 25%

Sequence: GGCATTCAGAATTTCC (sugars kkkddddkekekdddd, PS)
- target mRNA inhibition (A431, 2 µM): 20%

Sequence: CTATTAGAGGGCTAGT (sugars k4 d9 k3, PS)
- target mRNA inhibition (A431, 0.0625 µM): 32% and 19%
- target mRNA inhibition (A431, 0.25 µM): 52% and 39%
- target mRNA inhibition (A431, 1 µM): 71% and 51%

Sequence: GTTTTGTAAGTGCAAC (sugars kdddddkekekddddd, PS)
- target mRNA inhibition (A431, 2 µM): 92%

Sequence: CTTATGCTTACTCCAC (sugars k4 d9 k3, PS)
- target mRNA inhibition (A431, 0.0625 µM): 64%
- target mRNA inhibition (A431, 0.25 µM): 75%
- target mRNA inhibition (A431, 1 µM): 90%

Sequence: ATCAGATGGGTACTTC (sugars kkddddkekekkdddd, PS)
- target mRNA inhibition (A431, 2 µM): 45%

Sequence: TGAGTATTGTTTTTGT (sugars k2 d4 e3 k2 d5, PS)
- target mRNA inhibition (A431, 2 µM): 87%

Sequence: TTCTCATGGTACAGGA (sugars kkddddkdkdkddddd, PS)
- target mRNA inhibition (A431, 2 µM): 89%

Sequence: GAATTATGGAATTGCA (sugars k3 d4 k3 e1 d5, PS)
- target mRNA inhibition (A431, 2 µM): 90%

Sequence: AATTCTATTAGAGGGC (sugars kkkddddkekekdddd, PS)
- target mRNA inhibition (A431, 2 µM): 41%

Sequence: GTTATATTTGATCCTC (sugars kddddkekekeddddd, PS)
- target mRNA inhibition (A431, 2 µM): 60%

Sequence: TTCTATTAGAGGGCTA (sugars kkdddddkekeddddd, PS)
- target mRNA inhibition (A431, 0.0156 µM): 26%
- target mRNA inhibition (A431, 0.0625 µM): 56%
- target mRNA inhibition (A431, 0.25 µM): 81%
- target mRNA inhibition (A431, 1 µM): 92%
- target mRNA inhibition (A431, 2 µM): 94%

Sequence: CCGTCAATATATTCTT (sugars kkkddddkekeddddd, PS)
- target mRNA inhibition (A431, 2 µM): 97%

Sequence: AAGATTGGCTCTGGCT (sugars k3 d4 k3 e1 d5, PS)
- target mRNA inhibition (A431, 2 µM): 35%

Sequence: GTAAGTATTGCCAGCT (sugars k2 d4 e3 k2 d5, PS)
- target mRNA inhibition (A431, 2 µM): 89%

Sequence: GTTATATTTGATCCTC (sugars kkkddddkekekdddd, PS)
- target mRNA inhibition (A431, 2 µM): 66%

Sequence: GAAGATTGGCTCTGGC (sugars kkkddddkekekdddd, PS)
- target mRNA inhibition (A431, 2 µM): 16%

Sequence: TTATGAAATTATTGGT (sugars kkddddkekekddddd, PS)
- target mRNA inhibition (A431, 2 µM): 82%

Sequence: GAATGAGCAGGTCAGA (sugars k4 d9 k3, PS)
- target mRNA inhibition (A431, 0.0625 µM): 41%
- target mRNA inhibition (A431, 0.25 µM): 75%
- target mRNA inhibition (A431, 1 µM): 91%

Sequence: TTATGAAATTATTGGT (sugars kkddddkekekkdddd, PS)
- target mRNA inhibition (A431, 2 µM): 63%

Sequence: CATTTGGAGATCTGGC (sugars k4 d9 k3, PS)
- target mRNA inhibition (A431, 0.0625 µM): 57%
- target mRNA inhibition (A431, 0.25 µM): 74%
- target mRNA inhibition (A431, 1 µM): 92%

Sequence: GTTGTCCAGAGCTTTA (sugars k4 d9 k3, PS)
- target mRNA inhibition (A431, 0.0625 µM): 56%
- target mRNA inhibition (A431, 0.25 µM): 72%
- target mRNA inhibition (A431, 1 µM): 79%

Sequence: CATTCAGAATTTCCAC (sugars kkddddkekekkdddd, PS)
- target mRNA inhibition (A431, 2 µM): 57%

Sequence: GCTAAGTTCCGGTCTC (sugars k4 d9 k3, PS)
- target mRNA inhibition (A431, 0.0625 µM): 50%
- target mRNA inhibition (A431, 0.25 µM): 74%
- target mRNA inhibition (A431, 1 µM): 85%
